# Measurements published in patent US20230085307A1, “PYRIDAZINONE COMPOUND AND HERBICIDE” (NISSAN CHEMICAL CORPORATION, priority 2019, published 2023).
# Assays:
# [1] = test system: late watergrass; assay: Test Example 2: herbicidal activity, application during weed generation under submerged conditions (Table 17, symbol A); type: in vivo, late watergrass (Echinochloa oryzicola); settings: AAH 320 g/ha; application during weed generation, submerged conditions
# Summary of the method: (§1)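 Wagner pot, alluvial soil, 4 cm flood; mixed sowing of all species; greenhouse 25° C.–30° C. Emulsifiable formulation, water-diluted to predetermined dose, applied to paddy water at 1–2 leaf stage. Effect rated at 3 wk using the earlier test's scoring criteria.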
# [2] = test system: Japanese bulrush; assay: Test Example 2: herbicidal activity, application during weed generation under submerged conditions (Table 17, symbol B); type: in vivo, Japanese bulrush (Schoenoplectus juncoides); settings: AAH 320 g/ha; application during weed generation, submerged conditions
# Summary of the method: as §1
# [3] = test system: oval-leafed pondweed; assay: Test Example 2: herbicidal activity, application during weed generation under submerged conditions (Table 17, symbol C); type: in vivo, oval-leafed pondweed (Monochoria vaginalis); settings: AAH 320 g/ha; application during weed generation, submerged conditions
# Summary of the method: as §1
# [4] = test system: directly sowed rice; assay: Test Example 3: effect on crop by foliage application, Wagner pot (Table 18, symbol b); type: in vivo; settings: 320 g/ha
# Summary of the method: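 Plants were sown in alluvial soil held under 0.1–0.5 cm standing water and grown 14 days in a greenhouse at 25–30 °C. An emulsifiable formulation, water-diluted to the set dose, was then sprayed onto the foliage, and effects were scored three weeks later using previously defined criteria.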
# [5] = test system: southern crabgrass; assay: Test Example 4: herbicidal effect by soil treatment (Table 19, symbol F); type: in vivo, southern crabgrass (Digitaria ciliaris); settings: amount of applied herbicide 320 g/ha
# Summary of the method: (§2)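 Pre-emergence style soil spray: seeds under ~1.5 cm sterilized diluvial soil received a uniform coat of emulsion diluted to the predetermined herbicide amount. Greenhouse 25–30° C; readout at week three on previously defined criteria.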
# [6] = test system: green foxtail; assay: Test Example 4: herbicidal effect by soil treatment (Table 19, symbol G); type: in vivo, green foxtail (Setaria viridis); settings: amount of applied herbicide 320 g/ha
# Summary of the method: as §2
# [7] = test system: barnyard grass; assay: Test Example 4: herbicidal effect by soil treatment (Table 19, symbol H); type: in vivo, barnyard grass (Echinochloa crus-galli); settings: amount of applied herbicide 320 g/ha
# Summary of the method: as §2
# [8] = test system: wild oat; assay: Test Example 4: herbicidal effect by soil treatment (Table 19, symbol I); type: in vivo, wild oat (Avena fatua); settings: amount of applied herbicide 320 g/ha
# Summary of the method: as §2
# [9] = test system: blackgrass; assay: Test Example 4: herbicidal effect by soil treatment (Table 19, symbol J); type: in vivo, blackgrass (Alopecurus myosuroides); settings: amount of applied herbicide 320 g/ha
# Summary of the method: as §2
# [10] = test system: velvetleaf; assay: Test Example 4: herbicidal effect by soil treatment (Table 19, symbol M); type: in vivo, velvetleaf (Abutilon theophrasti); settings: amount of applied herbicide 320 g/ha
# Summary of the method: as §2
# [11] = test system: redroot pigweed; assay: Test Example 4: herbicidal effect by soil treatment (Table 19, symbol N); type: in vivo, redroot pigweed (Amaranthus retroflexus); settings: amount of applied herbicide 320 g/ha
# Summary of the method: as §2
# [12] = test system: false cleavers; assay: Test Example 4: herbicidal effect by soil treatment (Table 19, symbol Q); type: in vivo, false cleavers (Galium spurium); settings: amount of applied herbicide 320 g/ha
# Summary of the method: as §2
# [13] = test system: persian speedwell; assay: Test Example 4: herbicidal effect by soil treatment (Table 19, symbol R); type: in vivo, Persian speedwell (Veronica persica); settings: amount of applied herbicide 320 g/ha
# Summary of the method: as §2
# [14] = test system: corn; assay: Test Example 4: effect on crop by soil treatment (Table 19, symbol c); type: in vivo; settings: amount of applied herbicide 320 g/ha
# Summary of the method: as §2
# [15] = test system: beet; assay: Test Example 4: effect on crop by soil treatment (Table 19, symbol f); type: in vivo; settings: amount of applied herbicide 320 g/ha
# Summary of the method: as §2
# [16] = test system: barnyard grass; assay: Test Example 5: herbicidal effect by foliage application, plastic box (Table 20, symbol H); type: in vivo, barnyard grass (Echinochloa crus-galli); settings: foliage application, 320 g/ha, three weeks after application
# Summary of the method: (§3)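 Plants were sown into sterilized diluvial soil under about 1.5 cm cover and kept in a greenhouse at 25° C. to 30° C. Fourteen days on, foliage received an even spray of the diluted emulsion. Herbicidal or crop effect was judged three weeks afterwards.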
# [17] = test system: windgrass; assay: Test Example 5: herbicidal effect by foliage application, plastic box (Table 20, symbol L); type: in vivo, windgrass (Apera spica-venti); settings: foliage application, 320 g/ha, three weeks after application
# Summary of the method: as §3
# [18] = test system: redroot pigweed; assay: Test Example 5: herbicidal effect by foliage application, plastic box (Table 20, symbol N); type: in vivo, redroot pigweed (Amaranthus retroflexus); settings: foliage application, 320 g/ha, three weeks after application
# Summary of the method: as §3
# [19] = test system: chickweed; assay: Test Example 5: herbicidal effect by foliage application, plastic box (Table 20, symbol P); type: in vivo, common chickweed (Stellaria media); settings: foliage application, 320 g/ha, three weeks after application
# Summary of the method: as §3
# [20] = test system: false cleavers; assay: Test Example 5: herbicidal effect by foliage application, plastic box (Table 20, symbol Q); type: in vivo, false cleavers (Galium spurium); settings: foliage application, 320 g/ha, three weeks after application
# Summary of the method: as §3
# [21] = test system: persian speedwell; assay: Test Example 5: herbicidal effect by foliage application, plastic box (Table 20, symbol R); type: in vivo, Persian speedwell (Veronica persica); settings: foliage application, 320 g/ha, three weeks after application
# Summary of the method: as §3
# [22] = test system: corn; assay: Test Example 5: effect on crop by foliage application, plastic box (Table 20, symbol c); type: in vivo; settings: 320 g/ha, three weeks after application
# Summary of the method: as §3
# [23] = test system: beet; assay: Test Example 5: effect on crop by foliage application, plastic box (Table 20, symbol f); type: in vivo; settings: 320 g/ha, three weeks after application
# Summary of the method: as §3
smiles,measurement,setting,value
"Cc1nn(C)c(=O)c(-c2c(-c3ccc(C#N)cc3)sc3ccccc23)c1O [Compound No. 1-045, 5-hydroxy-2,6-dimethyl-4-(2-(4-cyanophenyl)benzo[b]thiophen-3-yl)pyridazin-3(2H)-one]","herbicidal effect rating, A: late watergrass",[1],1 (Herbicidal rate of 5% or more and less than 20%)
same,"herbicidal effect rating, B: Japanese bulrush",[2],3 (Herbicidal rate of 40% or more and less than 70%)
same,"herbicidal effect rating, C: oval-leafed pondweed",[3],4 (Herbicidal rate of 70% or more and less than 90%)
same,"effect on crop b (directly sowed rice), rating 0-5",[4],0 (Herbicidal rate of 5% or less (almost no effect))
same,"herbicidal effect rating, F: southern crabgrass",[5],4 (Herbicidal rate of 70% or more and less than 90%)
same,"herbicidal effect rating, G: green foxtail",[6],4 (Herbicidal rate of 70% or more and less than 90%)
same,"herbicidal effect rating, H: barnyard grass",[7],5 (Herbicidal rate of 90% or more (almost completely withered))
same,"herbicidal effect rating, I: wild oat",[8],0 (Herbicidal rate of 5% or less (almost no effect))
same,"herbicidal effect rating, J: blackgrass",[9],0 (Herbicidal rate of 5% or less (almost no effect))
same,"herbicidal effect rating, M: velvetleaf",[10],5 (Herbicidal rate of 90% or more (almost completely withered))
same,"herbicidal effect rating, N: redroot pigweed",[11],3 (Herbicidal rate of 40% or more and less than 70%)
same,"herbicidal effect rating, Q: false cleavers",[12],4 (Herbicidal rate of 70% or more and less than 90%)
same,"herbicidal effect rating, R: persian speedwell",[13],5 (Herbicidal rate of 90% or more (almost completely withered))
same,"effect rating on crop, c: corn",[14],0 (Herbicidal rate of 5% or less (almost no effect))
same,"effect rating on crop, f: beet",[15],5 (Herbicidal rate of 90% or more (almost completely withered))
same,"herbicidal effect grade, H: barnyard grass",[16],4 (Herbicidal rate of 70% or more and less than 90%)
same,"herbicidal effect grade, L: windgrass",[17],0 (Herbicidal rate of 5% or less (almost no effect))
same,"herbicidal effect grade, N: redroot pigweed",[18],5 (Herbicidal rate of 90% or more (almost completely withered))
same,"herbicidal effect grade, P: chickweed",[19],5 (Herbicidal rate of 90% or more (almost completely withered))
same,"herbicidal effect grade, Q: false cleavers",[20],5 (Herbicidal rate of 90% or more (almost completely withered))
same,"herbicidal effect grade, R: persian speedwell",[21],5 (Herbicidal rate of 90% or more (almost completely withered))
same,"effect on crop grade, c: corn",[22],0 (Herbicidal rate of 5% or less (almost no effect))
same,"effect on crop grade, f: beet",[23],5 (Herbicidal rate of 90% or more (almost completely withered))
